*1 amine or outer side, *2 acyl side, *3 side chain or, on linkers, in order; H or OH if unused. Where a SMILES comes first, the peptide text is derived from it. Bridges are numbered along the chain shown (N, C = ends). Roman numbers before positions name the chains, in order. [ ]: non-standard residue; d: D form. Actinocin(1to9) = Cc1c2oc3c(C)ccc(C(=O)[*:2])c3nc-2c(C(=O)[*:1])c(N)c1=O; NMeV = CN[C@H](C(=O)O)C(C)C; Sar = CNCC(=O)O
Legend:
[1] = target: T1, Alpha-2A adrenergic receptor (Homo sapiens, UniProt P08913); type: cell membranes, Sf9, Membrane; conditions: for Ki: read-out: Ki; on all read-outs here: in other assays of this panel Not Active means under 50% inhibition at 10 µM
T1 sequence (P08913 whole entry): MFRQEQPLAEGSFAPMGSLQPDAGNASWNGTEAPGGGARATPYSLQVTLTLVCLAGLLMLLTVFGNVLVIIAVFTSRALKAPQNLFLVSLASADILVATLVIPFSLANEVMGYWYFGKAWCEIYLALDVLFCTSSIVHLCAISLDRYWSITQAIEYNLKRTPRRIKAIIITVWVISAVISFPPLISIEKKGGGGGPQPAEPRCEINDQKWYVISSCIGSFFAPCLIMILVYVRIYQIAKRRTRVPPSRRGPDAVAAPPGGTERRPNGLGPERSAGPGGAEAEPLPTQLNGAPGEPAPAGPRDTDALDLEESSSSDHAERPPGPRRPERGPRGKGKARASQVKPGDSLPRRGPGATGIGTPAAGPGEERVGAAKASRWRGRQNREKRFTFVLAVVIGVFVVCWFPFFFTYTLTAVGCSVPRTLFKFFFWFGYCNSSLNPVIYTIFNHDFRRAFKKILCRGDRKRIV

[2] = target: T2, Muscarinic acetylcholine receptor M5 (Homo sapiens, UniProt P08912); type: cell membranes, CHO-K1, Membrane; further: in other assays of this panel Not Active means under 50% inhibition at 10 µM
T2 sequence (P08912 whole entry): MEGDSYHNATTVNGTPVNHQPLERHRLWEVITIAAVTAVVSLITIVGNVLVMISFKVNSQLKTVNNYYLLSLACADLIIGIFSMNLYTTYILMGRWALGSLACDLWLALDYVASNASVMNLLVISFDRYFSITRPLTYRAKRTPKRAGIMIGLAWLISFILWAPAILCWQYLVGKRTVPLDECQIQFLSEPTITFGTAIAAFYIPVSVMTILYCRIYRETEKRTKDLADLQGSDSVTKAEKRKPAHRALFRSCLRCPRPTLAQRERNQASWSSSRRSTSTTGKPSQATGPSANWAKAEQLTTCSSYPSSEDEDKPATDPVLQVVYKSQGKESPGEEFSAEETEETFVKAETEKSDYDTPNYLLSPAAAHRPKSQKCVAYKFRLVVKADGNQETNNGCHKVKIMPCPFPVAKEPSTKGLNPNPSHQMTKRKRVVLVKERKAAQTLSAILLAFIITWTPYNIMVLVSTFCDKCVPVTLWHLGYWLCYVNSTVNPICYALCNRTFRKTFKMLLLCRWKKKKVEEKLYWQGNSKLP

[3] = target: T3, 5-hydroxytryptamine receptor 2C (Homo sapiens, UniProt P28335); assay: DRUGMATRIX: Serotonin (5-Hydroxytryptamine) 5-HT2C radioligand binding (ligand: [3H] Mesulergine); type: cell membranes, CHO-K1, Membrane; conditions: Not Active = under 50% inhibition at 10 µM; for Ki: read-out: Ki
T3 sequence (P28335 whole entry): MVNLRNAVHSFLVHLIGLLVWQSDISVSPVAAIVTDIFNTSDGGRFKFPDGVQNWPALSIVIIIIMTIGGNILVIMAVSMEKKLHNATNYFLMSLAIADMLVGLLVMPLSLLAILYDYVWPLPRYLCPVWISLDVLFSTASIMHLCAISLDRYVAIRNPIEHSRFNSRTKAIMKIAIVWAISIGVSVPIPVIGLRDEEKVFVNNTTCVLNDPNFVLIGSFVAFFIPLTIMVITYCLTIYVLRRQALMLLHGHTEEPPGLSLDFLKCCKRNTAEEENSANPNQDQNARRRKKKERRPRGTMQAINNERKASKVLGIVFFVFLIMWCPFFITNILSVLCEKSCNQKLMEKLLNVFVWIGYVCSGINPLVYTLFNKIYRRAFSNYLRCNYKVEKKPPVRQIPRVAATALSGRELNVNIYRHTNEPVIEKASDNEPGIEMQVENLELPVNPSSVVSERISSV

[4] = target: 5-hydroxytryptamine receptor 2B (Homo sapiens, UniProt P41595); type: cell membranes, CHO-K1, Membrane; conditions: for Ki: read-out: Ki; on all read-outs here: in other assays of this panel Not Active means under 50% inhibition at 10 µM
5-hydroxytryptamine receptor 2B, sequence (P41595 whole entry): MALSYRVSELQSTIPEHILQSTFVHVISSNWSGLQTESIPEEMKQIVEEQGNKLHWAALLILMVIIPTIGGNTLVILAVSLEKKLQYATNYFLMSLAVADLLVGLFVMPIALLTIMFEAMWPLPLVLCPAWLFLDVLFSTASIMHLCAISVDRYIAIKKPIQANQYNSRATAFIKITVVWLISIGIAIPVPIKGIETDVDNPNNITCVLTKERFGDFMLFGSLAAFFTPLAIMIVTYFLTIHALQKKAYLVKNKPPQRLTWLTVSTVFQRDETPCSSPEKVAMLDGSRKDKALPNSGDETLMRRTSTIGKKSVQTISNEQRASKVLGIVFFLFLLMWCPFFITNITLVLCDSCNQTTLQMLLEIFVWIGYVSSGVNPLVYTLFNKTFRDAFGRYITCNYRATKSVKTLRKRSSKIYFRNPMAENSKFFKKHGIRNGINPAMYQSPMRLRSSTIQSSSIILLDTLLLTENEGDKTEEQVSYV

[5] = DRUGMATRIX: Platelet-Derived Growth Factor (PDGF) radioligand binding (ligand: [125I] PDGF); type: cell-based; conditions: nih3t3; Not Active = under 50% inhibition at 10 µM

Row | Compound | IC50 ([1]; sf9) | IC50 ([2]; cho-k1) | IC50 ([3]; cho-k1) | IC50 ([4]; cho-k1) | IC50 [5] | Ki [5] | IC50 ([1]; read-out: IC50) | Ki [1] | IC50 ([3]; read-out: IC50) | Ki [3] | IC50 ([4]; read-out: IC50) | Ki [4] | IC50 ([2]; read-out: IC50) | Ki ([2]; read-out: Ki)
1 | Cc1ccc(-c2cc(C(F)(F)F)nn2-c2ccc(S(N)(=O)=O)cc2)cc1 [CELECOXIB] | Not Active | Not Active | Not Active | Not Active | Not Active | Not Active | – | – | – | – | – | – | – | –
2 | O=C(O)CCCc1ccc(N(CCCl)CCCl)cc1 [CHLORAMBUCIL] | Not Active | Not Active | Not Active | Not Active | Not Active | Not Active | – | – | – | – | – | – | – | –
3 | C[C@H](CCC(=O)O)[C@H]1CC[C@H]2[C@@H]3[C@H](O)C[C@@H]4C[C@H](O)CC[C@]4(C)[C@H]3C[C@H](O)[C@]12C [CHOLIC ACID] | Not Active | Not Active | Not Active | Not Active | Not Active | Not Active | – | – | – | – | – | – | – | –
4 | Cc1cc(C2CCCCC2)n(O)c(=O)c1 [CICLOPIROX] | Not Active | Not Active | Not Active | Not Active | Not Active | Not Active | – | – | – | – | – | – | – | –
5 | CC1=C2C(=CO[C@H](C)[C@H]2C)C(O)=C(C(=O)O)C1=O [CITRININ] | Not Active | Not Active | Not Active | Not Active | Not Active | Not Active | – | – | – | – | – | – | – | –
6 | CC(C)(C)NCC(O)c1cc(Cl)c(N)c(Cl)c1 (stereo unspecified) [CLENBUTEROL] | Not Active | Not Active | Not Active | Not Active | Not Active | Not Active | – | – | – | – | – | – | – | –
7 | CC(C)(Oc1ccc(Cl)cc1)C(=O)O [CLOFIBRIC ACID] | Not Active | Not Active | Not Active | Not Active | Not Active | Not Active | – | – | – | – | – | – | – | –
8 | Cc1cc(C(C#N)c2ccc(Cl)cc2)c(Cl)cc1NC(=O)c1cc(I)cc(I)c1O (stereo unspecified) [CLOSANTEL] | Not Active | Not Active | Not Active | Not Active | Not Active | Not Active | – | – | – | – | – | – | – | –
9 | Cc1onc(-c2ccccc2Cl)c1C(=O)N[C@@H]1C(=O)N2[C@@H]1SC(C)(C)[C@@H]2C(=O)O [CLOXACILLIN] | Not Active | Not Active | Not Active | Not Active | Not Active | Not Active | – | – | – | – | – | – | – | –
10 | CC1CC(OC(=O)C(O)c2ccccc2)CC(C)(C)C1 (stereo unspecified) [CYCLANDELATE] | Not Active | Not Active | Not Active | Not Active | Not Active | Not Active | – | – | – | – | – | – | – | –
11 | Cc1c2oc3c(C)ccc(C(=O)N[C@@H]4C(=O)N[C@H](C(C)C)C(=O)N5CCC[C@H]5C(=O)N(C)CC(=O)N(C)[C@@H](C(C)C)C(=O)O[C@@H]4C)c3nc-2c(C(=O)N[C@@H]2C(=O)N[C@H](C(C)C)C(=O)N3CCC[C@H]3C(=O)N(C)CC(=O)N(C)[C@@H](C(C)C)C(=O)O[C@@H]2C)c(N)c1=O [DACTINOMYCIN] (I: T[dV]P[Sar][NMeV] / II: T[dV]P[Sar][NMeV]; ester I:1-I:C, II:1-II:C; linker I:N-II:N via Actinocin(1to9)) | Not Active | Not Active | Not Active | Not Active | Not Active | Not Active | – | – | – | – | – | – | – | –
12 | Cc1c(O)c(=O)ccn1C [DEFERIPRONE] | Not Active | Not Active | Not Active | Not Active | Not Active | Not Active | – | – | – | – | – | – | – | –
13 | CNCCCN1c2ccccc2CCc2ccccc21 [DESIPRAMINE] | Not Active | Not Active | Not Active | Not Active | Not Active | Not Active | – | – | – | – | – | – | – | –
14 | O=c1oc2ccccc2c(O)c1Cc1c(O)c2ccccc2oc1=O [DICUMAROL] | Not Active | Not Active | Not Active | Not Active | Not Active | Not Active | – | – | – | – | – | – | – | –
15 | C[C@H]1O[C@@H](O[C@H]2[C@@H](O)C[C@H](O[C@H]3[C@@H](O)C[C@H](O[C@H]4CC[C@@]5(C)[C@H](CC[C@@H]6[C@@H]5C[C@@H](O)[C@]5(C)[C@@H](C7=CC(=O)OC7)CC[C@]65O)C4)O[C@@H]3C)O[C@@H]2C)C[C@H](O)[C@@H]1O [DIGOXIN] | Not Active | Not Active | Not Active | Not Active | Not Active | Not Active | – | – | – | – | – | – | – | –
16 | CC(C)[C@@]1(NC(=O)[C@@H]2C[C@@H]3c4cccc5[nH]cc(c45)C[C@H]3N(C)C2)O[C@@]2(O)[C@@H]3CCCN3C(=O)[C@H](Cc3ccccc3)N2C1=O.CS(=O)(=O)O [DIHYDROERGOCRISTINE MESYLATE] | – | Not Active | – | – | Not Active | Not Active | 1.99 nM | 0.747 nM | 239 nM | 125 nM | 6.6 nM | 4.2 nM | – | –
17 | CC(=O)O[C@@]12CO[C@@H]1C[C@H](O)[C@@]1(C)C(=O)[C@H](O)C3=C(C)[C@@H](OC(=O)[C@H](O)[C@@H](NC(=O)OC(C)(C)C)c4ccccc4)C[C@@](O)([C@@H](OC(=O)c4ccccc4)[C@H]21)C3(C)C.O.O.O [DOCETAXEL] | Not Active | Not Active | Not Active | Not Active | Not Active | Not Active | – | – | – | – | – | – | – | –
18 | C[C@H]1c2cccc(O)c2C(=O)C2=C(O)[C@]3(O)C(=O)C(C(N)=O)=C(O)[C@@H](N(C)C)[C@@H]3[C@@H](O)[C@@H]21.O [DOXYCYCLINE] | Not Active | Not Active | Not Active | Not Active | Not Active | Not Active | – | – | – | – | – | – | – | –
19 | O=C(CCCN1CC=C(n2c(=O)[nH]c3ccccc32)CC1)c1ccc(F)cc1 [DROPERIDOL] | – | – | – | – | Not Active | Not Active | 2960 nM | 1110 nM | 454 nM | 238 nM | 1340 nM | 854 nM | 2300 nM | 1650 nM
20 | CC(C)[C@H]1C(=O)N2CCC[C@H]2[C@]2(O)O[C@](NC(=O)[C@@H]3C=C4c5cccc6[nH]cc(c56)C[C@H]4N(C)C3)(C(C)C)C(=O)N12 [ERGOCORNINE] | – | Not Active | – | – | Not Active | Not Active | 6.3 nM | 2.36 nM | 104 nM | 55 nM | 11 nM | 6.86 nM | – | –
21 | OC(Cn1cncn1)(Cn1cncn1)c1ccc(F)cc1F [FLUCONAZOLE] | Not Active | Not Active | Not Active | Not Active | Not Active | Not Active | – | – | – | – | – | – | – | –
22 | CC(C)C(=O)Nc1ccc([N+](=O)[O-])c(C(F)(F)F)c1 [FLUTAMIDE] | Not Active | Not Active | Not Active | Not Active | Not Active | Not Active | – | – | – | – | – | – | – | –
23 | N=C(N)NCCN1CCCCCCC1 [GUANETHIDINE] | Not Active | Not Active | Not Active | Not Active | Not Active | Not Active | – | – | – | – | – | – | – | –
24 | CC1(C)O[C@@H]2C[C@H]3[C@@H]4CCC5=CC(=O)CC[C@]5(C)[C@@]4(F)[C@@H](O)C[C@]3(C)[C@]2(C(=O)CCl)O1 [HALCINONIDE] | Not Active | Not Active | Not Active | Not Active | Not Active | Not Active | – | – | – | – | – | – | – | –
25 | O=c1[nH]c(=O)n([C@H]2C[C@H](O)[C@@H](CO)O2)cc1I [IDOXURIDINE] | Not Active | Not Active | Not Active | Not Active | Not Active | Not Active | – | – | – | – | – | – | – | –
26 | CC1Cc2ccccc2N1NC(=O)c1ccc(Cl)c(S(N)(=O)=O)c1 (stereo unspecified) [INDAPAMIDE] | Not Active | Not Active | Not Active | Not Active | Not Active | Not Active | – | – | – | – | – | – | – | –
